Test results published in the supplement of paper PMC10307832.

What was measured:
Experiment in all cases: relative viability (nuclei count vs DMSO), 5 days (fraction); higher = more cells survive
Tivantinib + Crizotinib = compound: O=C1NC(=O)[C@@H](c2cn3c4c(cccc24)CCC3)[C@@H]1c1c[nH]c2ccccc12 [Tivantinib] + C[C@@H](Oc1cc(-c2cnn(C3CCNCC3)c2)cnc1N)c1c(Cl)ccc(F)c1Cl [Crizotinib] (partner 1 µM)
Outline: (§1)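 For relative viability, nuclei counts in treated wells were divided by those in vehicle wells. Lung cancer cell lines had been pin-tool dosed in 1536-well plates the day after seeding and cultured for 5 days, then fixed and stained in one step (final 0.05% Triton X-100, 1% formaldehyde, 1 ug/ml Hoechst) and imaged at 4×. Doses were one drug alone or a fixed anchor-drug dose plus five library-drug doses (not always all listed) in √10 steps, and values are duplicate-plate medians.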

Crenolanib + Navitoclax = compound: CC1(COc2ccc3c(c2)ncn3-c2ccc3cccc(N4CCC(N)CC4)c3n2)COC1 [Crenolanib] + CC1(C)CCC(c2ccc(Cl)cc2)=C(CN2CCN(c3ccc(C(=O)NS(=O)(=O)c4ccc(N[C@H](CCN5CCOCC5)CSc5ccccc5)c(S(=O)(=O)C(F)(F)F)c4)cc3)CC2)C1 [Navitoclax] (partner 0.5 µM)
Outline: as §1

Crenolanib + Palbociclib = compound: CC1(COc2ccc3c(c2)ncn3-c2ccc3cccc(N4CCC(N)CC4)c3n2)COC1 [Crenolanib] + CC(=O)c1c(C)c2cnc(Nc3ccc(N4CCNCC4)cn3)nc2n(C2CCCC2)c1=O [Palbociclib] (partner 0.5 µM)
Outline: as §1

Tivantinib + Linsitinib = compound: O=C1NC(=O)[C@@H](c2cn3c4c(cccc24)CCC3)[C@@H]1c1c[nH]c2ccccc12 [Tivantinib] + C[C@]1(O)C[C@@H](c2nc(-c3ccc4ccc(-c5ccccc5)nc4c3)c3c(N)nccn32)C1 [Linsitinib] (partner 1 µM)
Outline: as §1

Cell Line	relative viability (Tivantinib + Crizotinib; first compound 0.01 µM)	relative viability (Tivantinib + Crizotinib; first compound 0.03162 µM)	relative viability (Tivantinib + Crizotinib; first compound 0.1 µM)	relative viability (Tivantinib + Crizotinib; first compound 0.3162 µM)	relative viability (Crenolanib + Navitoclax; first compound 0.01 µM)	relative viability (Crenolanib + Navitoclax; first compound 0.03162 µM)	relative viability (Crenolanib + Navitoclax; first compound 0.1 µM)	relative viability (Crenolanib + Navitoclax; first compound 0.3162 µM)	relative viability (Crenolanib + Navitoclax; first compound 1 µM)	relative viability (Crenolanib + Palbociclib; first compound 0.01 µM)	relative viability (Crenolanib + Palbociclib; first compound 0.03162 µM)	relative viability (Crenolanib + Palbociclib; first compound 0.1 µM)	relative viability (Crenolanib + Palbociclib; first compound 0.3162 µM)	relative viability (Crenolanib + Palbociclib; first compound 1 µM)	relative viability (Tivantinib + Linsitinib; first compound 0.01 µM)	relative viability (Tivantinib + Linsitinib; first compound 0.03162 µM)	relative viability (Tivantinib + Linsitinib; first compound 0.1 µM)	relative viability (Tivantinib + Linsitinib; first compound 0.3162 µM)
201T	1.01	1.01	1.04	1.02	1.19	1.21	1.16	1.16	1.24	0.363	0.349	0.341	0.37	0.337	1.03	1.03	0.971	0.954
A549	0.894	0.81	0.713	0.638	1.2	1.13	1.18	1.53	1.02	–	–	–	–	–	0.691	0.545	0.539	0.368
A-427	0.893	1.02	0.821	0.859	0.995	0.912	0.999	1.02	0.966	0.542	–	0.554	0.569	0.51	1.12	1.12	1.12	1.05
ABC-1	1.39	1.14	0.91	1.5	–	–	–	–	–	0.775	0.638	0.549	0.643	0.899	0.767	0.826	0.557	0.646
BEN	0.897	0.72	0.672	0.681	0.0589	0.0559	0.0723	0.0658	0.0687	0.464	0.482	0.48	0.524	0.497	0.998	0.725	0.826	0.693
CAL-12T	0.711	0.774	0.714	0.36	1.48	1.19	1.22	1.48	1.26	0.423	0.344	0.411	0.457	0.41	0.785	0.812	0.709	0.397
COR-L23	0.677	0.662	0.611	0.844	1.06	1.07	0.922	1.12	1.04	0.245	0.319	0.299	0.306	0.266	0.914	0.884	0.862	0.848
COR-L 105	0.725	0.769	0.787	0.435	0.766	0.778	0.713	0.975	0.884	0.435	0.467	0.436	0.379	0.417	0.824	0.695	0.985	0.578
Calu-6	0.795	0.799	0.665	0.826	1.02	0.781	0.826	0.941	0.838	–	–	–	–	–	1.02	1.04	–	0.963
ChaGo-K-1	1.1	1.2	1.11	0.939	0.674	0.917	1	0.844	1	0.955	0.941	0.913	0.821	0.986	–	–	–	–
EBC-1	0.184	0.189	0.195	0.198	0.504	0.395	0.467	0.566	0.571	–	–	–	–	–	0.902	0.626	0.842	0.86
EKVX	0.944	0.965	0.712	0.242	1.01	0.898	0.881	1.11	0.899	0.447	0.338	0.39	0.393	0.322	1	0.898	0.915	0.25
EMC-BAC-2	0.833	0.728	0.751	0.657	1.22	1.21	1.09	1.36	1.16	0.525	–	0.551	0.486	0.51	0.842	0.808	0.768	0.666
EPLC-272H	1.04	0.963	0.785	0.82	–	1.25	0.988	1.17	1.08	0.336	0.299	0.305	0.339	0.313	1.07	1.22	1.19	0.931
H3255	0.905	0.922	0.763	–	0.607	0.419	0.421	0.501	0.492	0.303	0.309	0.325	0.301	0.315	0.95	0.864	0.943	–
HARA	1.07	1.01	1.01	0.878	1.13	1.16	1.16	1.18	1.16	0.298	0.219	0.272	0.242	0.294	1.05	0.882	0.882	0.303
HCC-15	0.722	0.791	0.731	0.853	0.694	0.673	0.677	0.784	0.729	0.721	0.702	0.755	0.526	0.66	0.89	0.796	0.857	0.911
HCC-44	0.766	0.915	0.773	0.787	0.951	0.998	0.961	0.987	0.94	1.02	0.897	0.939	0.994	0.921	0.707	0.589	0.745	0.641
HCC-78	0.341	0.321	0.317	0.206	0.754	0.8	0.726	0.727	0.764	0.451	0.434	0.416	0.479	0.428	0.553	0.422	0.477	0.286
HCC-366	0.641	0.559	0.43	0.672	1.03	1.12	1.03	1.23	1.01	0.458	0.381	0.416	0.46	0.434	0.634	0.543	0.542	0.585
HCC-827	0.92	1.01	0.91	0.779	0.976	1.03	0.978	1.07	0.995	0.453	0.484	0.503	0.482	0.507	1.03	0.991	0.96	0.953
HOP-62	0.828	–	0.972	1.03	1.08	0.958	0.81	1.06	1.12	0.457	0.45	0.461	0.497	0.481	1.02	–	1.11	1.15

Cell Line	relative viability (Tivantinib + Crizotinib; first compound 0.01 µM)	relative viability (Tivantinib + Crizotinib; first compound 0.03162 µM)	relative viability (Tivantinib + Crizotinib; first compound 0.1 µM)	relative viability (Tivantinib + Crizotinib; first compound 0.3162 µM)	relative viability (Crenolanib + Navitoclax; first compound 0.01 µM)	relative viability (Crenolanib + Navitoclax; first compound 0.03162 µM)	relative viability (Crenolanib + Navitoclax; first compound 0.1 µM)	relative viability (Crenolanib + Navitoclax; first compound 0.3162 µM)	relative viability (Crenolanib + Navitoclax; first compound 1 µM)	relative viability (Crenolanib + Palbociclib; first compound 0.01 µM)	relative viability (Crenolanib + Palbociclib; first compound 0.03162 µM)	relative viability (Crenolanib + Palbociclib; first compound 0.1 µM)	relative viability (Crenolanib + Palbociclib; first compound 0.3162 µM)	relative viability (Crenolanib + Palbociclib; first compound 1 µM)	relative viability (Tivantinib + Linsitinib; first compound 0.01 µM)	relative viability (Tivantinib + Linsitinib; first compound 0.03162 µM)	relative viability (Tivantinib + Linsitinib; first compound 0.1 µM)	relative viability (Tivantinib + Linsitinib; first compound 0.3162 µM)
IA-LM	0.962	0.857	0.677	1.08	0.749	0.692	0.809	0.95	0.948	–	–	–	–	–	0.593	–	0.586	0.538
LC-2-ad	0.515	0.411	0.501	0.411	0.492	0.48	0.367	0.647	0.54	0.476	0.466	0.505	0.541	0.442	0.917	0.772	0.837	0.741
LCLC-97TM1	0.451	0.305	0.38	0.318	0.489	0.525	0.489	0.473	0.445	0.244	0.183	0.268	0.277	0.232	0.176	0.174	0.174	0.14
LCLC-103H	0.996	1.04	1.05	0.941	–	–	–	–	–	0.541	0.441	0.465	0.447	0.492	1.03	0.944	1.03	0.996
LK-2	0.2	–	0.223	0.218	0.909	1.07	0.93	1.05	0.933	0.667	0.532	0.88	0.734	1.06	0.816	–	0.497	0.355
LOU-NH91	0.746	0.729	0.705	0.53	0.853	0.702	0.645	0.641	0.737	0.524	0.481	0.518	0.539	0.548	0.859	0.884	0.958	0.536
LU99A	0.516	0.593	0.576	0.413	0.989	0.802	0.846	0.893	0.964	0.411	0.453	0.4	0.432	0.441	0.537	0.54	0.523	0.384
NCI-H358	0.651	0.574	0.709	0.301	–	–	–	–	–	0.164	0.131	0.136	0.135	0.125	0.725	0.717	0.617	0.328
NCI-H522	–	–	–	–	–	–	–	–	–	1.15	1.06	0.963	0.881	0.971	–	–	–	–
NCI-H596	1.08	0.92	0.987	0.905	1.02	1.04	0.805	0.899	0.822	–	–	–	–	–	1.05	1.05	1.05	1.04
NCI-H650	0.728	–	0.629	0.557	–	–	–	–	–	0.308	0.346	0.33	0.32	0.355	0.997	–	0.774	0.973
NCI-H661	0.914	1	0.962	0.736	–	–	–	–	–	0.433	0.416	0.424	0.408	0.43	0.658	0.442	0.628	–
NCI-H1299	0.686	0.972	0.587	0.93	1.04	1.04	0.987	1.08	1.06	–	–	–	–	–	0.941	0.946	0.92	1.04
NCI-H1395	–	–	–	–	1.13	1.26	1.07	1.18	1.15	0.622	0.628	0.677	0.635	0.628	1.1	1.22	0.926	0.857
NCI-H1563	0.851	0.893	0.822	0.884	–	–	–	–	–	–	–	–	–	–	1.22	1.25	1.07	1.1
NCI-H1648	–	–	–	–	–	–	–	–	–	0.254	–	0.262	0.29	0.267	–	–	–	–
NCI-H1650	1.07	0.903	1.04	0.984	1.22	1.13	1.14	1.6	1.34	0.397	0.281	0.324	0.308	0.387	–	–	–	–
NCI-H1703	0.747	1.01	0.535	0.255	1	0.657	0.286	0.254	0.198	–	–	–	–	–	0.828	0.456	0.783	0.687
NCI-H1793	–	–	–	–	0.441	0.362	0.386	0.386	0.511	0.295	0.321	0.302	0.36	0.43	0.994	0.843	0.813	–
NCI-H2170	1.31	1.13	1.04	–	0.612	0.549	0.65	0.665	0.579	0.384	0.432	0.38	0.422	0.417	–	–	–	–
NCI-H2342	–	–	–	–	–	–	–	–	–	0.521	0.545	0.574	0.533	0.598	–	–	–	–
SW 900	–	–	–	–	–	–	–	–	–	0.591	–	0.449	0.523	0.554	–	–	–	–
